Consider one compound from publication PMC4088097 (Scientific Reports, 2014).

The target in the assay is T1, ribose binding protein RbsB (Escherichia coli, UniProt P02925).
T1 sequence (P02925 26-296): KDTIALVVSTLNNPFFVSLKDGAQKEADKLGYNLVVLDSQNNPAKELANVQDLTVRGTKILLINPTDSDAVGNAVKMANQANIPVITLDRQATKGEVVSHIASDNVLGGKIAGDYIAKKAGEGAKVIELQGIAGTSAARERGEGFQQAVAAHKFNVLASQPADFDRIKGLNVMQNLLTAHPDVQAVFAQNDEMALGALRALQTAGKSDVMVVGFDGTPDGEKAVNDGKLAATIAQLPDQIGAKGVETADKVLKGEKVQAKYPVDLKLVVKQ
The assay can be described thus: ITC with purified protein, […]°C, one-site fit.

pKd: −log10 of the molar value.

Broadly, the pKd is the negative decadic logarithm of the Kd, by convention in mol/L. Read a low pKd as a large Kd.

In turn, `O=C[C@H](O)[C@H](O)[C@H](O)CO` [ribose] had a pKd of 6.90.
